{"source": "patent US20190234926A1", "about": "“METHOD OF PREDICTING FLAVOR PERFORMANCE” (McCormick & Company, Incorporated, priority 2016, published 2019)"}
{"experiment": "Polarity measured as dielectric constant with a dielectric constant meter", "format": "physicochemical", "settings": "at 20° C., general statement", "from_the_text": "(§1) Polar solvents such as water heat up in a microwave much faster than non-polar oils. Flavors heat up somewhere in between depending on their polarity. Dipolar moment of molecules of various liquids is different and can be a measure of polarity of liquids. The dipolar moment is responsible for interaction of molecules in a liquid with the electromagnetic field of a microwave oven. One measure of dipolar moment is dielectric constant. Thus, dielectric constant is a sound measure of flavor polarity and can predict flavor properties and flavor-matrix interaction whether during processing or in final target applications. An example of one commercially available dielectric constant meter useful with the method described herein is a model BI-870 from Brookhaven Instruments. It can measure dielectric constant not only at 20° C. but in a broad temperature range.\n(§2) In support of development of flavors, encapsulation technologies, and applications, dielectric constant of key solvents used in flavor formulation (Table 1) were measured and a variety of target flavors (Table 2). […] Dielectric constants of binary blends of components fall in the range between the dielectric constants of individual components."}
{"smiles": "O", "note": "[Water deionized, Water]", "Dielectric constant": "about 80"}
{"experiment": "Polarity measured as dielectric constant with a dielectric constant meter", "format": "physicochemical", "settings": "flavor components and compounded flavors incl. listed solvent, at about 20° C.", "from_the_text": "as §1, §2"}
{"smiles": "CC(=O)C(C)=O", "note": "[Diacetyl]", "Dielectric constant": 4.4}
{"experiment": "Polarity measured as dielectric constant with a dielectric constant meter", "format": "physicochemical", "settings": "solvents, at about 20° C.", "from_the_text": "as §1, §2"}
{"smiles": "OCc1ccccc1", "note": "[Benzyl alcohol]", "Dielectric constant": 13.8}
{"smiles": "CCO", "note": "[Ethanol (95%), Ethanol]", "Dielectric constant": 28.3}
{"smiles": "OCC(O)CO", "note": "[Glycerin]", "Dielectric constant": 46.1}
{"smiles": "CC(C)O", "note": "[Isopropanol]", "Dielectric constant": 20.8}
{"smiles": "CC(O)CO", "note": "(stereo not drawn) [Propylene glycol]", "Dielectric constant": 28.7}
{"smiles": "CC(=O)OCC(COC(C)=O)OC(C)=O", "note": "[Triacetin]", "Dielectric constant": 7.0}
{"smiles": "O", "note": "[Water deionized, Water]", "Dielectric constant": 79.2}
